In brackets after ≈: the same amount, converted by molar mass. Read-outs that look alike come from different tables or passages of the source.
What was measured:
Experiment in all cases: in vitro antibacterial MIC, agar plate dilution
Assay type in all cases: cell-based
[1] = tested on: Pseudomonas aeruginosa K 84-16; conditions: Pseudomonas aeruginosa, K8416, 18 h, 35° C., read-out: MIC
Summary of the method: (§1)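 Agar plate dilution on Mueller-Hinton agar, inoculum about 10^4 CFU per spot applied with a Steers replicator. MIC (mcg/ml) is the lowest compound concentration preventing visible growth after 18 h at 35 °C.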

[2] = tested on: Proteus rettgeri IO 83-21; conditions: Providencia rettgeri, IO8321, 18 h, 35° C., read-out: MIC
Summary of the method: as §1

[3] = tested on: Pseudomonas aeruginosa CMC 83-20; conditions: Pseudomonas aeruginosa, CMC8320, 18 h, 35° C., read-out: MIC
Summary of the method: as §1

[4] = tested on: Staphylococcus aureus VGH 84-45; conditions: Staphylococcus aureus, VGH8445, 18 h, 35° C., read-out: MIC
Summary of the method: as §1

[5] = tested on: Staphylococcus aureus K 82-26; conditions: Staphylococcus aureus, K8226, 18 h, 35° C., read-out: MIC
Summary of the method: as §1

[6] = tested on: Serratia marcescens IO 83-63; conditions: IO8363, 18 hours, 35° C.
Summary of the method: as §1

[7] = tested on: Proteus rettgeri CMC 84-41; conditions: Providencia rettgeri, CMC8441, 18 h, 35° C., read-out: MIC
Summary of the method: as §1

[8] = tested on: Serratia marcescens VGH 84-30; conditions: Serratia marcescens, VGH8430, 18 h, 35° C., read-out: MIC
Summary of the method: as §1

[9] = tested on: Staphylococcus aureus VGH 84-47; conditions: Staphylococcus aureus, VGH8447, 18 h, 35° C., read-out: MIC
Summary of the method: as §1

[10] = tested on: Pseudomonas aeruginosa VGH 84-4; conditions: Pseudomonas aeruginosa, VGH844, 18 h, 35° C., read-out: MIC
Summary of the method: as §1

[11] = tested on: Pseudomonas aeruginosa LL-1244; conditions: Pseudomonas aeruginosa, LL1244, 18 h, 35° C., read-out: MIC
Summary of the method: as §1

[12] = tested on: Morganella morganii CMC 84-38; conditions: Morganella morganii, CMC8438, 18 h, 35° C., read-out: MIC
Summary of the method: as §1

[13] = tested on: Serratia marcescens CMC 83-74; conditions: Serratia marcescens, CMC8374, 18 h, 35° C., read-out: MIC
Summary of the method: as §1

[14] = tested on: Escherichia coli VGH 84-19; conditions: Escherichia coli, VGH8419, 18 h, 35° C., read-out: MIC
Summary of the method: as §1

[15] = tested on: Streptococcus faecalis VGH 84-69; conditions: Enterococcus faecalis, VGH8469, 18 h, 35° C., read-out: MIC
Summary of the method: as §1

Escherichia coli LL 311 = conditions: Escherichia coli, LL311, 18 h, 35° C., read-out: MIC
Summary of the method: as §1

[16] = tested on: Klebsiella pneumoniae MOR 84-24; conditions: Klebsiella pneumoniae, MOR8424, 18 h, 35° C., read-out: MIC
Summary of the method: as §1

[17] = tested on: Escherichia coli CMC 84-50; conditions: Escherichia coli, CMC8450, 18 h, 35° C., read-out: MIC
Summary of the method: as §1

[18] = tested on: Escherichia coli CMC 84-11; conditions: Escherichia coli, CMC8411, 18 h, 35° C., read-out: MIC
Summary of the method: as §1

Citrobacter div. K 82-24 = conditions: Citrobacter, DIV.K8224, 18 h, 35° C., read-out: MIC
Summary of the method: as §1

[19] = tested on: Klebsiella pneumoniae CMC 84-31; conditions: Klebsiella pneumoniae, CMC8431, 18 h, 35° C., read-out: MIC
Summary of the method: as §1

[20] = tested on: Serratia marcescens MOR 84-41; conditions: Serratia marcescens, MOR8441, 18 h, 35° C., read-out: MIC
Summary of the method: as §1

[21] = tested on: Enterobacter cloacae VGH 84-39; conditions: Enterobacter cloacae, VGH8439, 18 h, 35° C., read-out: MIC
Summary of the method: as §1

[22] = tested on: Streptococcus faecalis CMC 83-120; conditions: Enterococcus faecalis, CMC83120, 18 h, 35° C., read-out: MIC
Summary of the method: as §1

[23] = tested on: Staphylococcus aureus CMC 83-131; conditions: Staphylococcus aureus, CMC83131, 18 h, 35° C., read-out: MIC
Summary of the method: as §1

[24] = tested on: Klebsiella pneumoniae IO 83-5; conditions: Klebsiella pneumoniae, IO835, 18 h, 35° C., read-out: MIC
Summary of the method: as §1

[25] = tested on: Enterobacter cloacae MOR 84-30; conditions: Enterobacter cloacae, MOR8430, 18 h, 35° C., read-out: MIC
Summary of the method: as §1

[26] = tested on: Staphylococcus aureus ATTC 29213; conditions: 35° C.
Summary of the method: as §1

[27] = tested on: Streptococcus faecalis UCI 85-19; conditions: Enterococcus faecalis, UCI8519, 18 h, 35° C., read-out: MIC
Summary of the method: as §1

[28] = tested on: Serratia marcescens K 84-18; conditions: Serratia marcescens, K8418, 18 h, 35° C., read-out: MIC
Summary of the method: as §1

[29] = tested on: Escherichia coli ATCC 25922; conditions: Escherichia coli, ATCC25922, 18 h, 35° C., read-out: MIC
Summary of the method: as §1

[30] = tested on: Morganella morganii CMC 84-37; conditions: Morganella morganii, CMC8437, 18 h, 35° C., read-out: MIC
Summary of the method: as §1

[31] = Staphylococcus aureus, ATTC29213, 18 h, read-out: MIC

| SMILES | MIC [1] [µg/mL] | MIC [2] [µg/mL] | MIC [3] [µg/mL] | MIC [4] [µg/mL] | MIC [5] [µg/mL] | MIC [6] [µg/mL] | MIC [7] [µg/mL] | MIC [8] [µg/mL] | MIC [9] [µg/mL] | MIC [10] [µg/mL] | MIC [11] [µg/mL] | MIC [12] [µg/mL] | MIC [13] [µg/mL] | MIC [14] [µg/mL] | MIC [15] [µg/mL] | MIC (Escherichia coli LL 311) [µg/mL] | MIC [16] [µg/mL] | MIC [17] [µg/mL] | MIC [18] [µg/mL] | MIC (Citrobacter div. K 82-24) [µg/mL] | further results |
| --- | --- | --- | --- | --- | --- | --- | --- | --- | --- | --- | --- | --- | --- | --- | --- | --- | --- | --- | --- | --- | --- |
| CCn1cc(C(=O)O)c(=O)c2cc(F)c(N3CCN(C)C(c4ccnn4C)C3)cc21 (stereo not shown) [Example 110, 1-Ethyl-6-fluoro-1,4-dihydro-7-[4-methyl-3-(1-methyl-1H-pyrazol-5-yl) -1-piperazinyl]-4-oxo-3-quinolinecarboxylic acid] | > 16 | 16 (≈ 38.7 µM) | > 16 | 0.5 (≈ 1.21 µM) | 16 (≈ 38.7 µM) | > 16 | 4 (≈ 9.67 µM) | > 128 | 1 (≈ 2.42 µM) | 128 (≈ 310 µM) | 128 (≈ 310 µM) | 8 (≈ 19.3 µM) | > 16 | 4 (≈ 9.67 µM) | 16 (≈ 38.7 µM) | 2 (≈ 4.84 µM) | 16 (≈ 38.7 µM) | 4 (≈ 9.67 µM) | 2 (≈ 4.84 µM) | 8 (≈ 19.3 µM) | MIC [19]: 8 µg/mL (≈ 19.3 µM); MIC [20]: > 16 µg/mL; MIC [21]: 8 µg/mL (≈ 19.3 µM); MIC [22]: 16 µg/mL (≈ 38.7 µM); MIC [23]: 2 µg/mL (≈ 4.84 µM); MIC [24]: 16 µg/mL (≈ 38.7 µM); MIC [25]: > 16 µg/mL; MIC ([26]; 18 hours): 1 µg/mL (≈ 2.42 µM); MIC [26, 31]: 0.5 µg/mL (≈ 1.21 µM); MIC [27]: 8 µg/mL (≈ 19.3 µM); MIC [28]: 8 µg/mL (≈ 19.3 µM); MIC [29]: 1 µg/mL (≈ 2.42 µM) |
| CN1CCN(c2c(F)c(F)c3c(=O)c(C(=O)O)cn(C4CC4)c3c2F)CC1 [Example 111, 1Cyclopropyl-5,6,8-trifluoro-1,4-dihydro-7-(4-methyl-1-piperazinyl) -4-oxo-3-quinolinecarboxylic acid] | 4 (≈ 10.5 µM) | 0.008 (≈ 0.021 µM) | 4 (≈ 10.5 µM) | 0.12 (≈ 0.315 µM) | 1 (≈ 2.62 µM) | 0.25 (≈ 0.656 µM) | 0.03 (≈ 0.0787 µM) | 2 (≈ 5.24 µM) | 0.12 (≈ 0.315 µM) | 2 (≈ 5.24 µM) | 4 (≈ 10.5 µM) | 0.008 (≈ 0.021 µM) | 4 (≈ 10.5 µM) | 0.004 (≈ 0.0105 µM) | 2 (≈ 5.24 µM) | 0.015 (≈ 0.0393 µM) | 0.06 (≈ 0.157 µM) | 0.004 (≈ 0.0105 µM) | 0.015 (≈ 0.0393 µM) | 0.002 (≈ 0.00524 µM) | MIC [30]: 0.03 µg/mL (≈ 0.0787 µM); MIC [19]: 0.015 µg/mL (≈ 0.0393 µM); MIC [20]: 0.06 µg/mL (≈ 0.157 µM); MIC [21]: 0.004 µg/mL (≈ 0.0105 µM); MIC [22]: 2 µg/mL (≈ 5.24 µM); MIC [23]: 0.25 µg/mL (≈ 0.656 µM); MIC [24]: 0.06 µg/mL (≈ 0.157 µM); MIC [25]: 0.06 µg/mL (≈ 0.157 µM); MIC [26, 31]: 0.25 µg/mL (≈ 0.656 µM); MIC [27]: 4 µg/mL (≈ 10.5 µM); MIC [28]: 0.12 µg/mL (≈ 0.315 µM) |
| O=C(O)c1cn(C2CC2)c2cc(N3CCNC(CF)C3)c(F)cc2c1=O (stereo not shown) [Example 131, 1-Cyclopropyl-6-fluoro-7-[3-(fluoromethyl)-1-piperazinyl]-1,4-dihydro-4-oxo-3-quinolinecarboxylic acid] | 1 (≈ 2.75 µM) | 0.12 (≈ 0.33 µM) | 1 (≈ 2.75 µM) | 0.25 (≈ 0.688 µM) | 0.5 (≈ 1.38 µM) | 0.5 (≈ 1.38 µM) | 0.06 (≈ 0.165 µM) | 2 (≈ 5.5 µM) | 0.25 (≈ 0.688 µM) | 1 (≈ 2.75 µM) | 2 (≈ 5.5 µM) | 0.06 (≈ 0.165 µM) | 4 (≈ 11 µM) | 0.03 (≈ 0.0826 µM) | 1 (≈ 2.75 µM) | 0.015 (≈ 0.0413 µM) | 0.12 (≈ 0.33 µM) | 0.06 (≈ 0.165 µM) | 0.015 (≈ 0.0413 µM) | 0.06 (≈ 0.165 µM) | MIC [30]: 0.5 µg/mL (≈ 1.38 µM); MIC [19]: 0.06 µg/mL (≈ 0.165 µM); MIC [20]: 0.12 µg/mL (≈ 0.33 µM); MIC [21]: 0.06 µg/mL (≈ 0.165 µM); MIC [22]: 2 µg/mL (≈ 5.5 µM); MIC [23]: 1 µg/mL (≈ 2.75 µM); MIC [24]: 0.12 µg/mL (≈ 0.33 µM); MIC [26, 31]: 0.5 µg/mL (≈ 1.38 µM); MIC [27]: 2 µg/mL (≈ 5.5 µM); MIC [28]: 0.12 µg/mL (≈ 0.33 µM); MIC [29]: 0.015 µg/mL (≈ 0.0413 µM) |
